Experimental data: ChEMBL document CHEMBL1139967, “Design, synthesis, and SAR of macrocyclic tertiary carbinamine BACE-1 inhibitors” (Bioorg Med Chem Lett, 2007)
pIC50: −log10 of the molar value.

Experiments:
[1] = in vitro; conditions: human, LLC-PK1
Description: Apparent permeability across L-MDR1 cells

[2] = test system: Brain; assay: Drug level in mouse brain at 30 mg/kg, ip after 2 hrs; assay type: ADME, organism-based; design: dose 30 mg/kg, route intraperitoneal; conditions: in vivo
[3] = target: T1, Renin (Homo sapiens, UniProt P00797); assay: Inhibition of renin
T1 sequence (P00797 whole entry): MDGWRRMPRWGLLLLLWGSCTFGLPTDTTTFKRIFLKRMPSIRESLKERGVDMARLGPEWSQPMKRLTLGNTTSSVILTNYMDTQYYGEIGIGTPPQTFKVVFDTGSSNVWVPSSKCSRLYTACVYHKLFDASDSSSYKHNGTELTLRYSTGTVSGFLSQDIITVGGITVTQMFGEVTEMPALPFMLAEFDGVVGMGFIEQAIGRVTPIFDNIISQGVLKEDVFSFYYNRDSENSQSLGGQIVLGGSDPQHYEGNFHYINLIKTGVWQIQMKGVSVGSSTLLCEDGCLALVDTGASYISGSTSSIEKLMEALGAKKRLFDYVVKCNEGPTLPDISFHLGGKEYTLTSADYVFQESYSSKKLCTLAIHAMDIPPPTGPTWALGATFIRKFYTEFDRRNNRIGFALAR

[4] = target: T2, Beta-secretase 2 (Homo sapiens, UniProt Q9Y5Z0); assay: Inhibition of BACE2
T2 sequence (Q9Y5Z0 whole entry): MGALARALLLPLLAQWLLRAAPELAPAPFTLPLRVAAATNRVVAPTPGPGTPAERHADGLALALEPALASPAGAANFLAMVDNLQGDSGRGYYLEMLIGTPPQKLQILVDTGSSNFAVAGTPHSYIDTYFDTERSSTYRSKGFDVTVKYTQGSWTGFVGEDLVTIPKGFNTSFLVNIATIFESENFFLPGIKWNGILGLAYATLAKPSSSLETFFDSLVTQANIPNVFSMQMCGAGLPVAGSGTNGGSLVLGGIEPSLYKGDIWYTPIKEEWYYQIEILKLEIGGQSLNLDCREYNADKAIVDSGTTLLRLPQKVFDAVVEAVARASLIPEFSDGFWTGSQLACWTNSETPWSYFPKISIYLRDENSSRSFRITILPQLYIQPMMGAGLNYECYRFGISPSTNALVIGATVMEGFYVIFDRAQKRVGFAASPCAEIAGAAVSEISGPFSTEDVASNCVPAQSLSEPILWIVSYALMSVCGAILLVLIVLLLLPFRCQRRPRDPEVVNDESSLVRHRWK

[5] = target: Cathepsin D (Homo sapiens, UniProt P07339)
Cathepsin D, sequence (P07339 65-162 limits assumed): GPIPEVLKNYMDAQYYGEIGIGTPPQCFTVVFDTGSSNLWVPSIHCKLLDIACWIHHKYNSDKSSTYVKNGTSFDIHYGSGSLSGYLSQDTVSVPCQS
Cathepsin D, sequence (P07339 169-412 limits assumed): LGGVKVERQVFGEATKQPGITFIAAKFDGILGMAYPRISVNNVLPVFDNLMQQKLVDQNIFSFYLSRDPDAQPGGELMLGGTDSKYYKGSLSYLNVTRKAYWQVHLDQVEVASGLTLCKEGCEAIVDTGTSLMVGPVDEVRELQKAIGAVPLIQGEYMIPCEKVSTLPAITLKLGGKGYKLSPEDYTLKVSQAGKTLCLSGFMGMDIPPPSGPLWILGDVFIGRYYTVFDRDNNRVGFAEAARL
Description: Inhibition of cathepsin D

Papp [1] [×10⁻⁶ cm/s]	Structure (SMILES)	also measured
9	C[C@@]1(N)Cc2ccc(F)c(c2)CC[C@H](c2ccc(F)cc2)NC(=O)c2cc(cc(-c3ccccc3C#N)c2)COC1=O	
6	C[C@@]1(N)Cc2ccc(F)c(c2)CC[C@H](c2ccc(F)cc2)NC(=O)c2cc(cc(-c3cccc(F)c3C#N)c2)COC1=O	
9	C[C@@]1(N)Cc2cccc(c2)CC[C@H](c2ccccc2)NC(=O)c2cc(cc(-c3ccccc3C#N)c2)COC1=O	Activity [2]: 16%; pIC50 [3]: 3.56; pIC50 [4]: 4.39; pIC50 [5]: 4.32
6	C[C@@]1(N)Cc2cccc(c2F)CC[C@H](c2ccc(F)cc2)NC(=O)c2cc(cc(-c3ccccc3C#N)c2)COC1=O	
13	CN(c1cc2cc(c1)C(=O)N[C@@H](c1ccccc1)CCc1cccc(c1)C[C@@](C)(N)C(=O)OC2)S(=O)(=O)C(F)(F)F	
	CCCN(c1cc2cc(c1)C(=O)N[C@@H](c1ccccc1)CCc1cccc(c1)C[C@@](C)(N)COC2)S(C)(=O)=O	pIC50 [3]: 3.84; pIC50 [4]: 5.80; pIC50 [5]: 3.56
12	CN(c1cc2cc(c1)C(=O)N[C@@H](c1ccccc1)CCc1cccc(c1)C[C@@](C)(N)C(=O)OC2)S(=O)(=O)CC(F)(F)F	
15	CN(C)S(=O)(=O)N(C)c1cc2cc(c1)C(=O)N[C@@H](c1ccccc1)CCc1cccc(c1)C[C@@](C)(N)C(=O)OC2	
7	C[C@@]1(N)Cc2cccc(c2)CC[C@H](c2ccc(F)cc2)NC(=O)c2cc(cc(-c3cccc(F)c3C#N)c2)COC1=O	
	CCCN(c1cc2cc(c1)C(=O)N[C@@H](c1ccccc1)CCc1cccc(c1)C[C@@](C)(N)C(=O)OC2)S(C)(=O)=O	pIC50 [3]: 3.77; pIC50 [4]: 4.27; pIC50 [5]: 4.01
9	C[C@@]1(N)Cc2cccc(c2)CC[C@H](c2ccccc2)NC(=O)c2cc(Br)cc(c2)COC1=O	
9	CN(c1cc2cc(c1)C(=O)N[C@@H](c1ccccc1)CCc1cccc(c1)C[C@@](C)(N)C(=O)OC2)S(C)(=O)=O	
